Laboratory results from US20220257764A1, “USE OF DIKETONE COMPOUND IN PHOTODYNAMIC THERAPY OR DIAGNOSIS” (BEIJING WHOLESOMETECH CO., LTD., priority 2019, published 2022).
Read-outs that look alike come from different tables or passages of the source.

Tests used:
[1] = Phototoxicity to healthy mice (body weight, blood routine, blood biochemistry); type: in vivo, BALB/C mice
Description: BALB/C mice were divided into 2 groups in total, 9 mice in each group. The mice were fed adaptively for 2 days. Mice in a control group were fed normally, and mice in an experimental group were given photodynamic therapy by subcutaneous injection every other day under the irradiation of laser with a wavelength of 450 nm to 480 nm at a light intensity of 200 mW/cm^2.
Administration mode: as shown in the table below, the photosensitizer was dissolved in physiological saline and subcutaneously injected in mice in the experimental group, and the group receiving photodynamic therapy was irradiated with light immediately after the injection.
2. The mice in the experimental group and the control group were weighed every other day. At the end of the experiment, the mice were subjected to blood collection for serum separation and necropsy, and blood routine indicators (including WBC, RBC, LY, PLT and many other blood routine indicators) and blood biochemical indicators (including routine blood biochemical indicators) were tested and analyzed in the Laboratory of Peking University Third Hospital.

[2] = test system: Escherichia coli; assay: Inhibitory effect on bacteria (colony counting), under light and in the dark; type: cell-based; conditions: 60 mM
Description: A single Escherichia coli colony was transferred from a solid Luria Bertani (LB) agar plate to 5 ml liquid LB medium and incubated at 37° C. for 12 h. Bacteria were collected by centrifugation (7000 rpm, 1 min) and washed with PBS buffer three times. The supernatant was discarded, and the remaining Escherichia coli cells were resuspended in the PBS buffer. The bacterial suspension was adjusted to make its optical density (OD600) to 1.0. The suspension was then diluted (5 times) with PBS buffer. The diluted Escherichia coli cell suspension was incubated in the dark at 37° C. for 15 min in the presence of a photosensitizer (diketone compound) solution with a concentration of 60 mM, and then irradiated for 200 s under a 15 mW/cm^2 laser light (with a wavelength of 450 nm to 480 nm and in the final light dose of about 3 J cm^2), and after the irradiation the bacterial suspension was serially diluted (10^4 times) with PBS buffer. 100 μL of the diluted bacterial Escherichia coli cell was dispersed on a solid LB agar plate and incubated at 37° C. for 12 h to 16 h, and colonies formed were counted. In the meanwhile, a treated group in the dark and an untreated group in the dark were set; the inhibition rate was determined by dividing the number of colony forming units (cfu) killed in the treated group under light or the treated group in the dark by the number of colony forming units (cfu) killed in the untreated group in the dark.

[3] = Blood routine and blood biochemical indicators of tumor-bearing mice after 2 weeks of treatment; type: in vivo, BALB/C mice; design: Mean corpuscular hemoglobin (MCH) / Mean corpuscular volume (MCV) / Red blood cell volume distribution width (RDW) / Hematocrit (HCT) / Hemoglobin (HGB): unit not given here; conditions: for Hematocrit (HCT) / Hemoglobin (HGB) / Mean corpuscular hemoglobin (MCH) / Mean corpuscular hemoglobin concentration (MCHC) / Mean corpuscular volume (MCV) / Mean platelet volume (MPV) / Platelet count (PLT) / Platelet distribution width (PDW) / Plateletocrit (PCT) / Red blood cell volume distribution width (RDW) / Red blood count (RBC) / White blood cell count (WBC): after 2 weeks
Description: 1. Photodynamic therapy experiments on tumors were carried out by using BJMU-204 as a photosensitizer and BALB/C mice as experimental animals.
Modeling mode: BALB/C mice were divided into 5 groups in total, 11-12 mice in each group. 4T1 cells (breast cancer cells in mice) were resuscitated and subcultured to a better cell state for tumorigenesis inoculation. BALB/C mice were locally depilated and disinfected, and tumor cells were injected into the mouse mammary fat pad in situ. Tumors were formed within 7 to 10 days.
Administration time: drug intervention was given to mice after tumor formation, and photodynamic therapy was given by intratumoral injection every other day under the irradiation of laser with a wavelength of 450 nm to 480 nm at a light intensity of 200 mW/cm^2.
Administration mode: as shown in the table below, the photosensitizer was dissolved in physiological saline and injected in mice in groups 1-3 intratumorally, and the groups receiving photodynamic therapy were irradiated with light immediately after the injection.
2. Mice in each experimental group were subjected to blood collection for serum separation and necropsy, and tumors were taken out and measured to obtain their wet weights; tumor tissues were fixed, pathological examinations were performed, and H. E. staining was used to observe the changes of tumors of the mice under an optical microscope; blood routine indicators (including white blood cell count (WBC), red blood cell count (RBC), lymphocyte count (LY), platelet count (PLT) and many other blood routine indicators) and blood biochemical indicators (including routine blood biochemical indicators) were tested and analyzed in the Laboratory of Peking University Third Hospital.

[4] = 3% subcutaneous injection + light 10 min, after 2 weeks
[5] = Control group-1: intratumoral injection 3%, no light
[6] = High-concentration (3%) intratumoral injection + light 10 min
[7] = Low-concentration (0.5%) intratumoral injection + light 10 min

Structure (SMILES): CC(=O)C(C)=O [BJMU-204]
- body weight, experimental group vs control group ([1]; 3% subcutaneous + light, 14 days after treatment): no significant difference
- Hematocrit (HCT) [1, 4]: 45.22 ± 2.83
- Hemoglobin (HGB) [1, 4]: 160.22 ± 12.07
- Mean corpuscular hemoglobin (MCH) [1, 4]: 16.18 ± 0.34
- Mean corpuscular hemoglobin concentration (MCHC) [1, 4]: 354.11 ± 8.19
- Mean corpuscular volume (MCV) [1, 4]: 45.71 ± 0.6
- Mean platelet volume (MPV) [1, 4]: 6.23 ± 0.37
- Platelet count (PLT) [1, 4]: 290 ± 50.23
- Platelet distribution width (PDW) [1, 4]: 14.84 ± 0.6
- Plateletocrit (PCT) [1, 4]: 0.17 ± 0.03
- Red blood cell volume distribution width (RDW) [1, 4]: 12.67 ± 0.54
- Red blood count (RBC) [1, 4]: 9.9 ± 0.72
- White blood cell count (WBC) [1, 4]: 6.56 ± 0.54
- liver, kidney and blood toxicity ([1]; continuous treatment for 14 days at high concentration therapeutic doses): will not cause liver, kidney and blood toxicity
- inhibition at 60000 µM ([2]; 450-480 nm laser, 15 mW/cm^2, 200 s, read-out: Inhibition rate under light): 96%
- inhibition at 60000 µM ([2]; in the dark, read-out: Inhibition rate in the dark): 10.3%
- Hematocrit (HCT) [3, 5]: 28.8 ± 5.76
- Hemoglobin (HGB) [3, 5]: 117 ± 26.64
- Mean corpuscular hemoglobin (MCH) [3, 5]: 18.43 ± 0.67
- Mean corpuscular hemoglobin concentration (MCHC) [3, 5]: 404.5 ± 26.01
- Mean corpuscular volume (MCV) [3, 5]: 45.65 ± 1.35
- Mean platelet volume (MPV) [3, 5]: 6.1 ± 0
- Platelet count (PLT) [3, 5]: 312 ± 125.04
- Platelet distribution width (PDW) [3, 5]: 16.2 ± 0
- Plateletocrit (PCT) [3, 5]: 0.24 ± 0
- Red blood cell volume distribution width (RDW) [3, 5]: 14.18 ± 0.75
- Red blood count (RBC) [3, 5]: 6.33 ± 1.36
- White blood cell count (WBC) [3, 5]: 352.8 ± 45.95
- Hematocrit (HCT) [3, 6]: 32.4 ± 12.48
- Hemoglobin (HGB) [3, 6]: 123 ± 40.8
- Mean corpuscular hemoglobin (MCH) [3, 6]: 18.43 ± 1.93
- Mean corpuscular hemoglobin concentration (MCHC) [3, 6]: 387.5 ± 40.38
- Mean corpuscular volume (MCV) [3, 6]: 47.5 ± 1.95
- Mean platelet volume (MPV) [3, 6]: 6.63 ± 0.76
- Platelet count (PLT) [3, 6]: 267 ± 167.28
- Platelet distribution width (PDW) [3, 6]: 15.13 ± 0.76
- Plateletocrit (PCT) [3, 6]: 0.24 ± 0.12
- Red blood cell volume distribution width (RDW) [3, 6]: 14.58 ± 0.84
- Red blood count (RBC) [3, 6]: 6.81 ± 2.51
- White blood cell count (WBC) [3, 6]: 136.8 ± 31.45
- Hematocrit (HCT) [3, 7]: 32.64 ± 12.12
- Hemoglobin (HGB) [3, 7]: 141.6 ± 42.72
- Mean corpuscular hemoglobin (MCH) [3, 7]: 20.1 ± 1.84
- Mean corpuscular hemoglobin concentration (MCHC) [3, 7]: 447 ± 48.54
- Mean corpuscular volume (MCV) [3, 7]: 45.04 ± 1.21
- Mean platelet volume (MPV) [3, 7]: 6.23 ± 0.61
- Platelet count (PLT) [3, 7]: 494.4 ± 387.6
- Platelet distribution width (PDW) [3, 7]: 13.37 ± 1.47
- Plateletocrit (PCT) [3, 7]: 0.48 ± 0.24
- Red blood cell volume distribution width (RDW) [3, 7]: 13.78 ± 0.59
- Red blood count (RBC) [3, 7]: 7.22 ± 2.62
- White blood cell count (WBC) [3, 7]: 193.5 ± 70
- number of platelets and white blood cells in the blood ([3]; treated groups vs control groups (p<0.001), after 2 weeks of treatment): decreases
- liver, kidney and blood toxicity ([3]; tumor-bearing mice, continuous treatment for 14 days at high or low concentration therapeutic doses): will not cause liver, kidney and blood toxicity
